Measured values reported in article PMC6792352, “Limited Chemical Structural Diversity Found to Modulate Thyroid Hormone Receptor in the Tox21 Chemical Library” (Environmental Health Perspectives, 2019).
Structures can show the parent of a compound that is named as a salt. Non-standard residues stand in square brackets, D forms with d. Residues, ends and D or L forms follow the SMILES beside them. *: point of attachment. Sta = CC(C)C[C@H](N)[C@@H](O)CC(=O)O; Isovaleryl = CC(C)CC(=O)*

Test: in vitro
Details: rat, gh3-tre-luc cells, AC50 (uM) modified / 1000

Point of comparison: `Cc1ccc2c(Br)cc(Br)c(O)c2n1` [Broquinaldol], CC50 at 24 h 23 µM. Against it:
- CCCCN(CCCC)c1ccc(C(=O)c2ccccc2C(=O)O)c(O)c1 [2-[4-(Dibutylamino)-2-hydroxybenzoyl]benzoic acid] — 2-fold higher, 46.7 µM
- Oc1cccc(Nc2ccccc2)c1 [3-Hydroxy-N-phenylaniline] — higher, > 100 µM
- NCC[C@H](O)C(=O)N[C@@H]1C[C@H](N)[C@@H](O[C@H]2O[C@H](CN)[C@@H](O)[C@H](O)[C@H]2N)[C@H](O[C@@H]2O[C@H](CO)C(O)[C@H]2O)[C@H]1O (stereo partly drawn) [Butirosin disulfate] — not separable, > 20 µM
- Cc1ccccc1C=O [2-Tolualdehyde] — higher, > 90 µM
- C[C@H]1O[C@H](O[C@H]2[C@H](O)[C@@H](O)[C@@H](O)[C@H](O)[C@@H]2O)[C@@H](N)C[C@@H]1NC(=N)C(=O)O [Kasugamycin hydrochloride] — higher, > 90 µM
- CCCCCCCCCCCCCCCC(=O)OC[C@H](COP(=O)([O-])OCC[N+](C)(C)C)OC(=O)CCCCCCCCCCCCCCC [Colfosceril palmitate] — higher, > 50 µM
- Cc1cccc(C)c1NC(=O)/N=C1\CCCN1C [Xilobam] — higher, > 50 µM
- CCCCC(CC)COC(=O)CCCCCCCCC(=O)OCC(CC)CCCC (stereo not drawn) [Bis(2-ethylhexyl) decanedioate] — higher, > 90 µM
- C[C@@H](O)[C@@H](C)O [2,3-Butanediol] — higher, > 100 µM
- SC1CCCC1 [Cyclopentanethiol] — higher, > 90 µM
- O=C(O)CC(O)C(=O)O (stereo not drawn) [Malic acid] — higher, > 90 µM
- CC(=O)N(CC(C)C(=O)O)c1c(I)cc(I)c(N)c1I (stereo not drawn) [Iocetamic acid] — not separable, > 20 µM
- O=C(O)C1=C(CSc2nnnn2CS(=O)(=O)O)CS[C@@H]2[C@H](NC(=O)[C@H](O)c3ccccc3)C(=O)N12 [Cefonicid sodium] — higher, > 50 µM
- Cc1cccc(C)c1OCC(C)N (stereo not drawn) [Mexiletene hydrochloride] — higher, > 50 µM
- CC(CO)(CO)CO [2-(Hydroxymethyl)-2-methyl-1,3-propanediol] — higher, > 90 µM
- COC(=O)c1cc(Cl)cc(Cl)c1 [Methyl 3,5-dichlorobenzoate] — higher, > 90 µM
- COc1ccc(/C=C/C(=O)Nc2ccccc2C(=O)O)cc1OC [Tranilast] — higher, > 50 µM
- CCC[C@H](N[C@@H](C)C(=O)N1[C@H](C(=O)O)C[C@@H]2CCCC[C@@H]21)C(=O)OCC [Perindopril] — higher, > 50 µM
- CC(C)C(C(=O)OC(C#N)c1cccc(Oc2ccccc2)c1)c1ccc(OC(F)F)cc1 (stereo not drawn) [Flucythrinate] — higher, > 90 µM
- O=C(Nc1ccc2[nH]ccc2c1)c1cc2cc(F)ccc2n1Cc1cccc(F)c1 [SAR115740] — 1.6-fold lower, 14.6 µM
- Oc1ccc(Cc2ccccc2O)cc1 [2-(4-Hydroxybenzyl)phenol] — higher, > 90 µM
- c1ccc2sc(SN3CCOCC3)nc2c1 [N-Oxydiethylenebenzothiazole-2-sulfenamide] — higher, > 50 µM
- C[C@@H](O)[C@H](N)C(=O)O [L-Threonine] — higher, > 50 µM
- CCC(C(=O)NC(N)=O)c1ccccc1 (stereo not drawn) [Ethylphenylacetylurea] — higher, > 90 µM
- O=S(=O)(O)Oc1ccc(C(c2ccc(OS(=O)(=O)O)cc2)c2ccccn2)cc1 [Picosulfate sodium] — higher, > 50 µM
- ClC/C=C/CCl [(2E)-1,4-Dichlorobut-2-ene] — higher, > 90 µM
- CN[C@H]1CC[C@@H](c2ccc(Cl)c(Cl)c2)c2ccccc21 [Sertraline hydrochloride] — 2.9-fold lower, 7.85 µM
- CC(C)CC(=O)N[C@H](C(=O)N[C@H](C(=O)N[C@@H](CC(C)C)[C@@H](O)CC(=O)N[C@@H](C)C(=O)N[C@@H](CC(C)C)[C@@H](O)CC(=O)O)C(C)C)C(C)C [Pepstatin] (Isovaleryl-VV[Sta]A[Sta]-OH) — higher, > 50 µM
- CCCCCCC [Heptane] — higher, > 100 µM
- CC(C)CCC[C@@H](C)[C@H]1CC[C@H]2[C@@H]3CC[C@@H]4C[C@H](O)CC[C@]4(C)[C@H]3CC[C@]12C [(3alpha,5beta)-Cholestan-3-ol] — higher, > 50 µM
- COC(=O)C(CN)c1c[nH]c2ccc(OC)cc12 (stereo not drawn) [Indorenate hydrochloride] — higher, > 50 µM
- CC(=O)c1ccc(S(=O)(=O)NC(=O)NC2CCCCC2)cc1 [Acetohexamide] — higher, > 90 µM
- CCCCOC(=O)CC [Butyl propionate] — higher, > 90 µM
- CC1COc2ccccc2N1 (stereo not drawn) [3-Methyl-3,4-dihydro-2H-1,4-benzoxazine] — higher, > 90 µM
- COC(=O)Nc1nc2ccc([S+]([O-])c3ccccc3)cc2[nH]1 (stereo not drawn) [Oxfendazole] — higher, > 50 µM
- CC(C)OC(=O)OCOP(=O)(CO[C@H](C)Cn1cnc2c(N)ncnc21)OCOC(=O)OC(C)C [Tenofovir disoproxil fumarate] — higher, > 50 µM
- CC/C=C\CC/C=C/C(OCC)OCC [(2E,6Z)-1,1-diethoxynona-2,6-diene] — higher, > 90 µM
- NC1CCC(CC2CCC(N)CC2)CC1 (stereo not drawn) [4,4'-Diaminodicyclohexylmethane] — higher, > 90 µM
- Cn1c(NCCN(CCO)CCCc2ccc([N+](=O)[O-])cc2)cc(=O)n(C)c1=O [Nifekalant hydrochloride] — higher, > 50 µM
- CN1CCC[C@@H]1c1cccnc1 [D-Nicotine] — higher, > 50 µM
- Nc1cc(O)nc(N)n1 [2,4-Diamino-6-hydroxypyrimidine] — higher, > 50 µM
- Cc1ccc(C)c([N+](=O)[O-])c1 [1,4-Dimethyl-2-nitrobenzene] — higher, > 90 µM
- CCCCOCN(C(=O)CCl)c1c(CC)cccc1CC [Butachlor] — 2.1-fold higher, 49.4 µM
- Cc1ccc([N+](=O)[O-])cc1S(=O)(=O)O [2-Methyl-5-nitrobenzenesulfonic acid] — higher, > 90 µM
- COc1ccc(NS(=O)(=O)c2ccc(N)cc2)nn1 [Sulfamethoxypyridazine] — not separable, > 20 µM
- C[C@]12C=CC(=O)C=C1[C@@H](F)C[C@@H]1[C@@H]2[C@@H](O)C[C@@]2(C)[C@H]1CC[C@]2(O)C(=O)CO [Fluprednisolone] — higher, > 50 µM
- CCOC(=O)C1CC(=O)C(=C(O)C2CC2)C(=O)C1 (stereo not drawn) [Trinexapac-ethyl] — higher, > 90 µM
- COC(=O)C1=C(C)NC(COC(N)=O)=C(C(=O)OC(C)C)C1c1cccc(Cl)c1Cl (stereo not drawn) [Lemildipine] — within 1.5-fold, 25.8 µM
- Cc1cnc2c(C(=O)O)c(Cl)ccc2c1 [Quinmerac] — higher, > 90 µM
- CC(=O)CC(=O)Nc1ccccc1 [Acetoacetanilide] — higher, > 90 µM
- CCOc1cccc(C2(N3CCN(c4ccccc4)CC3)CCC(C)CC2)c1 (stereo not drawn) [CP-422935] — higher, > 90 µM
- O=C1CCCc2ccccc21 [1,2,3,4-Tetrahydronaphthalen-1-one] — higher, > 90 µM
- Cc1cc(C)cc(C)c1 [1,3,5-Trimethylbenzene] — higher, > 90 µM
- CCC(C)(C)C1CCC(O)CC1 (stereo not drawn) [4-(2-Methylbutan-2-yl)cyclohexanol] — higher, > 90 µM
- NS(=O)(=O)c1cc2c(cc1Cl)N=CNS2(=O)=O [Chlorothiazide] — higher, > 90 µM
- Nc1cc[nH]c(=O)n1 [Cytosine] — higher, > 90 µM

Same assay, conditions: rat, gh3-tre-luc cells, AC50 (uM) modified / 1000, Tox21_110001=Tox21_113424; viability, 1 nM T3 present, 24 h

In the case of `C[C@]12CCC(=O)C[C@@H]1CC[C@@H]1[C@@H]2CC[C@@]2(C)[C@H]1CC[C@]2(C)O` [Mestanolone], the CC50 at 24 h is reported as > 50 µM.

Same assay, conditions: rat, gh3-tre-luc cells, AC50 (uM) modified / 1000, Tox21_110001=Tox21_200824; viability, 1 nM T3 present, 24 h

With `C=CCCl` [Allyl chloride] the CC50 at 24 h was > 100 µM.

Same assay, conditions: rat, gh3-tre-luc cells, AC50 (uM) modified / 1000, Tox21_110001=Tox21_201664; viability, 1 nM T3 present, 24 h

With `CC(C)OC(=O)Nc1ccccc1` [Propham] the CC50 at 24 h was > 90 µM.

Same assay, conditions: rat, gh3-tre-luc cells, AC50 (uM) modified / 1000, Tox21_110001=Tox21_202795; viability, 1 nM T3 present, 24 h

Compound `O=C(CCl)C(Cl)Cl` [1,1,3-Trichloropropanone] has a CC50 at 24 h of 13 µM.

Same assay, conditions: rat, gh3-tre-luc cells, AC50 (uM) modified / 1000, Tox21_110001=Tox21_202927; viability, 1 nM T3 present, 24 h

With `CCCCON=O` [N-Butylnitrite] the CC50 at 24 h was > 90 µM.

Same assay, conditions: rat, gh3-tre-luc cells, AC50 (uM) modified / 1000, Tox21_110001=Tox21_301905; viability, 1 nM T3 present, 24 h

With `CCOP(=O)(N=C1SCCS1)OCC` [Phosfolan] the CC50 at 24 h was > 90 µM.
